Reference: the supplement of paper PMC10307832

Columns and labels:
Experiment in all cases: relative viability (nuclei count vs DMSO), 5 days (fraction); higher = more cells survive
[1] = compound: CC1=NC=CC(=C1)C2=CC=C(C=C2)CC(=O)NC3=CC=C(C=C3)C4=CN=CC=C4 [Wnt-C59] + CC(C)C[C@H](NC(=O)[C@H](Cc1ccccc1)NC(=O)c1cnccn1)B(O)O [Bortezomib] (partner 0.002 µM)
Method in brief: (§1)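 Each reported value is a median over duplicate plates. It expresses relative viability: treated-well nuclei count divided by vehicle-well nuclei count. Lung cancer cell lines in 1536-well plates were dosed by pin tool a day after seeding, alone with one drug or with a fixed anchor-drug dose plus five library-drug doses (not always all listed) in √10 steps, and nuclei were counted after 5 days.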

[2] = compound: CC1=NC=CC(=C1)C2=CC=C(C=C2)CC(=O)NC3=CC=C(C=C3)C4=CN=CC=C4 [Wnt-C59] + C[C@]1(O)C[C@@H](c2nc(-c3ccc4ccc(-c5ccccc5)nc4c3)c3c(N)nccn32)C1 [Linsitinib] (partner 1 µM)
Method in brief: as §1

[3] = compound: CS(=O)(=O)CCNCc1ccc(-c2ccc3ncnc(Nc4ccc(OCc5cccc(F)c5)c(Cl)c4)c3c2)o1 [Lapatinib] + CC1(C)CCC(c2ccc(Cl)cc2)=C(CN2CCN(c3ccc(C(=O)NS(=O)(=O)c4ccc(N[C@H](CCN5CCOCC5)CSc5ccccc5)c(S(=O)(=O)C(F)(F)F)c4)cc3)CC2)C1 [Navitoclax] (partner 0.5 µM)
Method in brief: as §1

[4] = compound: CS(=O)(=O)CCNCc1ccc(-c2ccc3ncnc(Nc4ccc(OCc5cccc(F)c5)c(Cl)c4)c3c2)o1 [Lapatinib] + NC(=O)Nc1cc(-c2cccc(F)c2)sc1C(=O)N[C@H]1CCCNC1 [AZD7762] (partner 0.2 µM)
Method in brief: as §1

NCI-H2347
relative viability ([1]; first compound 0.001 µM): 0.808 | relative viability ([1]; first compound 0.01 µM): 1.12 | relative viability ([1]; first compound 0.03162 µM): 0.922 | relative viability ([1]; first compound 0.1 µM): 1.1 | relative viability ([2]; first compound 0.001 µM): 0.987 | relative viability ([2]; first compound 0.01 µM): 0.889 | relative viability ([2]; first compound 0.03162 µM): 0.98 | relative viability ([2]; first compound 0.1 µM): 0.987 | relative viability ([3]; first compound 0.02 µM): 0.548 | relative viability ([3]; first compound 0.06325 µM): 0.807 | relative viability ([3]; first compound 0.2 µM): 0.826 | relative viability ([3]; first compound 0.6325 µM): 0.731 | relative viability ([3]; first compound 2 µM): 0.769 | relative viability ([4]; first compound 0.02 µM): 0.495 | relative viability ([4]; first compound 0.06325 µM): 0.705 | relative viability ([4]; first compound 0.2 µM): 0.637 | relative viability ([4]; first compound 0.6325 µM): 0.81 | relative viability ([4]; first compound 2 µM): 0.612

NCI-H2405
relative viability ([1]; first compound 0.001 µM): 0.978 | relative viability ([1]; first compound 0.01 µM): 0.962 | relative viability ([1]; first compound 0.03162 µM): 0.944 | relative viability ([1]; first compound 0.1 µM): 0.95 | relative viability ([2]; first compound 0.001 µM): 1.03 | relative viability ([2]; first compound 0.03162 µM): 0.887 | relative viability ([2]; first compound 0.1 µM): 0.875 | relative viability ([3]; first compound 0.06325 µM): 0.769 | relative viability ([3]; first compound 0.2 µM): 0.868 | relative viability ([3]; first compound 0.6325 µM): 0.881 | relative viability ([3]; first compound 2 µM): 0.72 | relative viability ([4]; first compound 0.06325 µM): 0.682 | relative viability ([4]; first compound 0.6325 µM): 0.759 | relative viability ([4]; first compound 2 µM): 0.617

NCI-H3122
relative viability ([1]; first compound 0.001 µM): 0.998 | relative viability ([1]; first compound 0.01 µM): 0.972 | relative viability ([1]; first compound 0.03162 µM): 1.04 | relative viability ([1]; first compound 0.1 µM): 0.958 | relative viability ([2]; first compound 0.001 µM): 1.04 | relative viability ([2]; first compound 0.01 µM): 0.931 | relative viability ([2]; first compound 0.03162 µM): 1.02 | relative viability ([2]; first compound 0.1 µM): 1.02 | relative viability ([3]; first compound 0.02 µM): 1.01 | relative viability ([3]; first compound 0.06325 µM): 1 | relative viability ([3]; first compound 0.2 µM): 1.01 | relative viability ([3]; first compound 0.6325 µM): 0.968 | relative viability ([3]; first compound 2 µM): 1.01 | relative viability ([4]; first compound 0.02 µM): 0.959 | relative viability ([4]; first compound 0.06325 µM): 0.9 | relative viability ([4]; first compound 0.2 µM): 0.999 | relative viability ([4]; first compound 0.6325 µM): 1.04 | relative viability ([4]; first compound 2 µM): 0.973

PC-3 [JPC-3]
relative viability ([1]; first compound 0.001 µM): 0.874 | relative viability ([1]; first compound 0.01 µM): 0.782 | relative viability ([1]; first compound 0.03162 µM): 0.881 | relative viability ([1]; first compound 0.1 µM): 0.856 | relative viability ([2]; first compound 0.001 µM): 0.964 | relative viability ([2]; first compound 0.01 µM): 0.942 | relative viability ([2]; first compound 0.03162 µM): 1.01 | relative viability ([2]; first compound 0.1 µM): 0.961 | relative viability ([3]; first compound 0.06325 µM): 0.797 | relative viability ([3]; first compound 0.2 µM): 0.779 | relative viability ([3]; first compound 0.6325 µM): 0.885 | relative viability ([3]; first compound 2 µM): 0.689 | relative viability ([4]; first compound 0.06325 µM): 0.477 | relative viability ([4]; first compound 0.6325 µM): 0.655 | relative viability ([4]; first compound 2 µM): 0.414

PC-14
relative viability ([1]; first compound 0.001 µM): 0.949 | relative viability ([1]; first compound 0.01 µM): 0.9 | relative viability ([1]; first compound 0.03162 µM): 0.903 | relative viability ([1]; first compound 0.1 µM): 0.733 | relative viability ([2]; first compound 0.001 µM): 0.936 | relative viability ([2]; first compound 0.01 µM): 1.04 | relative viability ([2]; first compound 0.03162 µM): 0.958 | relative viability ([2]; first compound 0.1 µM): 0.944 | relative viability ([3]; first compound 0.02 µM): 0.956 | relative viability ([3]; first compound 0.06325 µM): 0.991 | relative viability ([3]; first compound 0.2 µM): 0.958 | relative viability ([3]; first compound 0.6325 µM): 0.985 | relative viability ([3]; first compound 2 µM): 0.839 | relative viability ([4]; first compound 0.02 µM): 0.362 | relative viability ([4]; first compound 0.06325 µM): 0.331 | relative viability ([4]; first compound 0.2 µM): 0.301 | relative viability ([4]; first compound 0.6325 µM): 0.295 | relative viability ([4]; first compound 2 µM): 0.138

RERF-LC-KJ
relative viability ([1]; first compound 0.001 µM): 1.07 | relative viability ([1]; first compound 0.01 µM): 1.05 | relative viability ([1]; first compound 0.03162 µM): 1.22 | relative viability ([1]; first compound 0.1 µM): 1.21 | relative viability ([2]; first compound 0.001 µM): 0.914 | relative viability ([2]; first compound 0.01 µM): 0.79 | relative viability ([2]; first compound 0.03162 µM): 0.908 | relative viability ([2]; first compound 0.1 µM): 0.85 | relative viability ([3]; first compound 0.02 µM): 0.933 | relative viability ([3]; first compound 0.06325 µM): 0.894 | relative viability ([3]; first compound 0.2 µM): 0.755 | relative viability ([3]; first compound 0.6325 µM): 0.888 | relative viability ([3]; first compound 2 µM): 0.592 | relative viability ([4]; first compound 0.02 µM): 0.391 | relative viability ([4]; first compound 0.06325 µM): 0.936 | relative viability ([4]; first compound 0.2 µM): 0.717 | relative viability ([4]; first compound 0.6325 µM): 0.877 | relative viability ([4]; first compound 2 µM): 0.707
